Patent publication US5786348A, “Methods for preparation and use of 1α,24(S)-dihydroxy vitamin D2” (priority 1995, dated 1998)
Entries after “also recorded” stand apart in the source; their conditions may differ.

Experiments:
[1] = Prophylaxis of postmenopausal bone loss in healthy postmenopausal women; type: in vivo, human
Method: A clinical study is conducted with healthy postmenopausal women having ages between 55 and 60 years. The study involves up to 80 patients randomly divided into two treatment groups, and continues for 24 to 36 months. One treatment group receives a constant dosage of 1α,24(S)-dihydroxy vitamin D2 (u.i.d.; a dose level at or above 1.0 μg/day) and the other receives a matching placebo. The study is conducted as indicated in Example 12 above.

bovine thymus VDR = target: T1, bovine thymus VDR (Bos taurus, UniProt Q28037); experiment: Radioreceptor assay with bovine thymus VDR (Incstar), displacement of 3H-1α,25-(OH)2 D3; type: binding
T1 construct: commercially available kit of bovine thymus VDR; purchased Incstar (Stillwater, Minn.); host or cells: bovine thymus
T1 sequence (Q28037 1-426): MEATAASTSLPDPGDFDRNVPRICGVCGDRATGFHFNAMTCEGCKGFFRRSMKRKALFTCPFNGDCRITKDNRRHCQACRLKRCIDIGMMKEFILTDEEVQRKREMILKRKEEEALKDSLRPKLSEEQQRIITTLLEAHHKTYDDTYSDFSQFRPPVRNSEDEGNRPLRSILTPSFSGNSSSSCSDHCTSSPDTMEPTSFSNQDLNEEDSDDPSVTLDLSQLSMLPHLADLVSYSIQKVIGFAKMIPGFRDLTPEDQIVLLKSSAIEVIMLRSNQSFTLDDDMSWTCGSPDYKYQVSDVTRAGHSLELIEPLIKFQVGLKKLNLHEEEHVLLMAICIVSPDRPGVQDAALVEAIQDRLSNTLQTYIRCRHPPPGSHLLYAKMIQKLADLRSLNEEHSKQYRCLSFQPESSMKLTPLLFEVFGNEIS
Description: Purified 1α,24(S)-(OH)2 D2 was quantitated by photodiode array spectrophotometry and assayed in the radioreceptor assay.
The purified 1α,24(R)-(OH)2 D2 and 1α,24(S)-(OH)2 D2 epimers were quantitated by ultraviolet spectroscopy. The concentration of 1α,24(R)-(OH)2 D2 required to produce the same displacement of ^3 H-1α,25-(OH)2 D3 tracer from the receptor was 20 to 30 times that required for 1α,24(S)-(OH)2 D2, as shown in FIG. 4.

[2] = Dermatological testing: topical ointment in dermatitis patients; type: in vivo, human; conditions: ointment 10 μg per gram, twice daily, four to six weeks
Method: Compositions containing 1α,24(S)-dihydroxy vitamin D2 are evaluated for therapeutic efficacy of the composition in the topical treatment of dermatitis (contact and ectopic). The composition evaluated is an ointment containing 10 μg of 1α,24-dihydroxy vitamin D2 per gram of ointment in a petrolatum-almond oil base. […] The patients are treated in an out-patient clinic. They are instructed to use the preparation two times a day.
The ointment is as far as possible applied to a single lesion, or to an area of the disease. The ointment and its container are weighed before the treatment starts and returned with any unused contents for reweighing at the end of the treatment.
The area of the lesion treated is estimated and recorded, and the lesion is photographed as required, together with suitable "control" lesions. The latter are preferably lesions of similar size and stage of development, either in the vicinity of the treated lesion or symmetrically contralateral. Relevant details of the photographic procedure are recorded so as to be reproduced when the lesions are next photographed (distance, aperture, angle, background, etc.). The ointment is applied twice daily and preferably left uncovered. The "control" lesions are left untreated, but if this is not possible, the treatment used on them is noted. […]

[3] = Preventive treatment of bone mass loss in postmenopausal osteoporotic women; type: in vivo, human; conditions: at or above 1.0 μg/day, 24 to 36 months
Method: A clinical study is conducted with postmenopausal osteoporotic out-patientshaving ages between 55 and 75 years. The study involves up to 120 patients randomly divided into three treatment groups and continues for 24 to 36 months. Two of the treatment groups receive constant dosages of 1α,24(S)-dihydroxy vitamin D2 (u.i.d.; two different dose levels at or above 1.0 μg/day) and the other group receives a matching placebo. All patients maintain a normal intake of dietary calcium (500 to 800 mg/day) and refrain from using calcium supplements. Efficacy is evaluated by pre-and post-treatment comparisons of the patient groups with regard to (a) total body calcium retention, and (b) radial and spinal bone mineral density as determined by dual-photon absorptiometry (DPA) or dual-energy x-ray absorptiometry (DEXA). Safety is evaluated by comparisons of urinary hydroxyproline excretion, serum and urine calcium levels, creatinine clearance, blood urea nitrogen, and other routine determinations.

[4] = target: T2, vitamin D serum binding protein (DBP) (Rattus norvegicus, UniProt P04276); experiment: Binding to vitamin D serum binding protein in vitamin D deficient rat serum
T2 sequence (P04276 17-476): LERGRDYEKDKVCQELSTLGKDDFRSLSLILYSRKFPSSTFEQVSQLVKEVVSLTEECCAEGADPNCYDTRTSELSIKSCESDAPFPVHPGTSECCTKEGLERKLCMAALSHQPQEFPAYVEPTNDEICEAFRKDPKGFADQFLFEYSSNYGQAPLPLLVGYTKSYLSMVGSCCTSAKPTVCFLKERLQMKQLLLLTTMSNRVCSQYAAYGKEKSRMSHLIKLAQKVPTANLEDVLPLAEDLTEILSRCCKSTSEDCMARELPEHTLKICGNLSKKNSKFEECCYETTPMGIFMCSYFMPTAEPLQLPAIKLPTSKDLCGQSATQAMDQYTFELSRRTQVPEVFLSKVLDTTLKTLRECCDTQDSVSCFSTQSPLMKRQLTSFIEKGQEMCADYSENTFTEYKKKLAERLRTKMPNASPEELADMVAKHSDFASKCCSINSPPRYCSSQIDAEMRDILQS
Description: In addition, the weak binding by the DBP was indicative of more rapid clearance, allowing for low toxicity.

HL-60 promyelocytes = experiment: HL-60 cell differentiation assay; type: cell-based; conditions: dose-response; acid esterase, NBT reduction, thymidine incorporation
Method: A dose-response study is conducted with 1α,24(S)-(OH)2 D2 in the HL-60 cell differentiation assay as described by DeLuca and Ostrom (DeLuca, H. F. and ostrem, V. K., Prog. Clin. Biol. Res., vol. 259, pp. 41-55 (1988)). In this study, 1α,25-(OH)2 D3 is used as a positive control and appropriate solvents are used as negative controls. The following variables are evaluated: nonspecific acid esterase activity, nitroblue tetrazolium (NBT) reduction, and thymidine incorporation.

C=C1/C(=C\C=C2/CCC[C@]3(C)[C@@H]([C@H](C)/C=C/[C@@](C)(O)C(C)C)CC[C@@H]23)C[C@@H](O)C[C@@H]1O [1α,24(S)-(OH)2 D2, 1α,24(S)-dihydroxy vitamin D2]
Losses in total body calcium, radial or spinal bone densities relative to baseline ([1]; at or above 1.0 μg/day, 24 to 36 months): reduced losses | Monitored safety parameters ([1]; long-term administration at or above 1.0 μg/day): confirm the safety | IC50 (bovine thymus VDR; bovine thymus VDR radioreceptor assay, read-out: Half-maximal binding (converted)): ~0.35 nM | Affinity for VDR relative to 1α,25-(OH)2 D3 (bovine thymus VDR; compared with 1α,25-(OH)2 D3): two-fold less competitive; also recorded: two-fold lower affinity | Incidence of hypercalcemia [2]: insignificant incidence | Lesion severity scores (erythema, scaling, thickness; 0 to 3) ([2]; against control lesions): lower scores than the control lesions | Incidence of hypercalcemia or hypercalciuria or other metabolic disturbance [3]: insignificant incidence | Total body calcium, radial and spinal bone densities relative to placebo [3]: significantly higher | Binding to the vitamin D serum binding protein relative to 1,25-(OH)2 D3 ([4]; compared with 1,25-(OH)2 D3): more weakly | Binding affinity for the vitamin D serum binding protein ([4]; in words): relatively poor binding affinity | Promotion of differentiation of HL-60 promyelocytes to monocytes (HL-60 promyelocytes): potent activity
